In patent US8247211B2, “Glycopeptide antibiotics” (American Cyanamid Company, priority 2001, dated 2012):
≈ marks a conversion by molar mass, not a printed value. Values belong to the compound of their own block, whether it stands above or below them.

What was measured:
Test in all cases: In vitro antibacterial evaluation: minimum inhibitory concentration (MIC), broth dilution method
Assay type in all cases: cell-based
Enterococcus sp. = conditions: 18 hours at 35° C.
In short: (§1)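 First, organisms are seeded at 5×10^5 CFU/mL into Muller-Hinton II […]. Next, antibiotic is applied across 64-0.06 μg/mL by broth dilution (NCCLS M7-A2). Finally, the lowest inhibitory concentration is recorded as MIC.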

Escherichia coli = conditions: 18 hours at 35° C.
In short: as §1

Staphylococcus sp. = conditions: for MIC Staphylococcus aureus (ATCC 29213): strain ATCC 29213; for MIC Staphylococcus aureus (GC 1131): strain GC 1131; for MIC Staphylococcus aureus (GC 3051): strain GC 3051; for MIC Staphylococcus aureus (GC 3053): strain GC 3053; for MIC Staphylococcus aureus (GC 4541): strain GC 4541; for MIC Staphylococcus aureus (GC 4542): strain GC 4542; for MIC Staphylococcus aureus-SMITH (GC 4543): strain GC 4543; for MIC Staphylococcus aureus (GC 4544): strain GC 4544; for MIC Staphylococcus aureus (GC 4545): strain GC 4545; for MIC Staphylococcus haemolyticus (GC 4546): strain GC 4546; for MIC Coagulase Negative Staphylococcus (GC 4547): strain GC 4547; for MIC Coagulase Negative Staphylococcus (GC 4548): strain GC 4548; for MIC Coagulase Negative Staphylococcus (GC 4549): strain GC 4549; for MIC Coagulase Negative Staphylococcus (GC 4551): strain GC 4551
In short: as §1

Streptococcus sp. = conditions: 18 hours at 35° C.
In short: as §1

[1] = Enterococcus faecalis (ATCC 29212)
[2] = Enterococcus faecalis (GC 2242)
[3] = Enterococcus faecalis (GC 2691)
[4] = Enterococcus faecalis (GC 3059)
[5] = Enterococcus faecalis (GC 4552)
[6] = Enterococcus faecalis (GC 4553)
[7] = Enterococcus faecalis (GC 4554)
[8] = Enterococcus faecalis (GC 6189)
[9] = broth dilution, inoculum 5×10^5 CFU/mL
[10] = Streptococcus agalactiae (GC 4564)
[11] = Streptococcus pneumoniae (ATCC 6301)
[12] = Streptococcus pneumoniae (GC 1894)
[13] = Streptococcus pneumoniae (GC 4565)
[14] = Streptococcus pyogenes (GC 4563)

MIC Enterococcus avium (GC 4558) (Enterococcus sp.; Enterococcus avium (GC 4558)): 2 µg/mL (≈ 1.43 µM)
MIC Enterococcus faecalis (ATCC 29212) (Enterococcus sp.; [1]): 1 µg/mL (≈ 0.713 µM)
MIC Enterococcus faecalis (GC 2242) (Enterococcus sp.; [2]): 2 µg/mL (≈ 1.43 µM)
MIC Enterococcus faecalis (GC 2691) (Enterococcus sp.; [3]): 2 µg/mL (≈ 1.43 µM)
MIC Enterococcus faecalis (GC 3059) (Enterococcus sp.; [4]): 1 µg/mL (≈ 0.713 µM)
MIC Enterococcus faecalis (GC 4552) (Enterococcus sp.; [5]): 2 µg/mL (≈ 1.43 µM)
MIC Enterococcus faecalis (GC 4553) (Enterococcus sp.; [6]): 2 µg/mL (≈ 1.43 µM)
MIC Enterococcus faecalis (GC 4554) (Enterococcus sp.; [7]): 2 µg/mL (≈ 1.43 µM)
MIC Enterococcus faecalis (GC 6189) (Enterococcus sp.; [8]): 1 µg/mL (≈ 0.713 µM)
MIC Enterococcus faecium (GC 2243) (Enterococcus sp.; Enterococcus faecium (GC 2243)): 2 µg/mL (≈ 1.43 µM)
MIC Enterococcus faecium (GC 4556) (Enterococcus sp.; Enterococcus faecium (GC 4556)): 1 µg/mL (≈ 0.713 µM)
MIC Enterococcus faecium (GC 4557) (Enterococcus sp.; Enterococcus faecium (GC 4557)): 2 µg/mL (≈ 1.43 µM)
MIC Enterococcus avium (GC 4558) (Enterococcus sp.; [9]): 2 µg/mL (≈ 1.43 µM)
MIC Enterococcus faecalis (ATCC 29212) (Enterococcus sp.; [9]): 1 µg/mL (≈ 0.713 µM)
MIC Enterococcus faecalis (GC 2242) (Enterococcus sp.; [9]): 2 µg/mL (≈ 1.43 µM)
MIC Enterococcus faecalis (GC 2691) (Enterococcus sp.; [9]): 2 µg/mL (≈ 1.43 µM)
MIC Enterococcus faecalis (GC 3059) (Enterococcus sp.; [9]): 1 µg/mL (≈ 0.713 µM)
MIC Enterococcus faecalis (GC 4552) (Enterococcus sp.; [9]): 2 µg/mL (≈ 1.43 µM)
MIC Enterococcus faecalis (GC 4553) (Enterococcus sp.; [9]): 2 µg/mL (≈ 1.43 µM)
MIC Enterococcus faecalis (GC 4554) (Enterococcus sp.; [9]): 2 µg/mL (≈ 1.43 µM)
MIC Enterococcus faecalis (GC 6189) (Enterococcus sp.; [9]): 1 µg/mL (≈ 0.713 µM)
MIC Enterococcus faecium (GC 2243) (Enterococcus sp.; [9]): 2 µg/mL (≈ 1.43 µM)
MIC Enterococcus faecium (GC 4556) (Enterococcus sp.; [9]): 1 µg/mL (≈ 0.713 µM)
MIC Enterococcus faecium (GC 4557) (Enterococcus sp.; [9]): 2 µg/mL (≈ 1.43 µM)
MIC Escherichia coli (ATCC 25922) (Escherichia coli): 32 µg/mL (≈ 22.8 µM)
MIC Escherichia coli (GC 4559) (Escherichia coli): 32 µg/mL (≈ 22.8 µM)
MIC Escherichia coli (GC 4560) (Escherichia coli): 1 µg/mL (≈ 0.713 µM)
MIC Staphylococcus aureus (ATCC 29213) (Staphylococcus sp.): 1 µg/mL (≈ 0.713 µM)
MIC Staphylococcus aureus (GC 1131) (Staphylococcus sp.): 1 µg/mL (≈ 0.713 µM)
MIC Staphylococcus aureus (GC 3051) (Staphylococcus sp.): 1 µg/mL (≈ 0.713 µM)
MIC Staphylococcus aureus (GC 3053) (Staphylococcus sp.): 1 µg/mL (≈ 0.713 µM)
MIC Staphylococcus aureus (GC 4541) (Staphylococcus sp.): 1 µg/mL (≈ 0.713 µM)
MIC Staphylococcus aureus (GC 4542) (Staphylococcus sp.): 1 µg/mL (≈ 0.713 µM)
MIC Staphylococcus aureus-SMITH (GC 4543) (Staphylococcus sp.): 1 µg/mL (≈ 0.713 µM)
MIC Staphylococcus aureus (GC 4544) (Staphylococcus sp.): 1 µg/mL (≈ 0.713 µM)
MIC Staphylococcus aureus (GC 4545) (Staphylococcus sp.): 1 µg/mL (≈ 0.713 µM)
MIC Coagulase Negative Staphylococcus (GC 4547) (Staphylococcus sp.): 1 µg/mL (≈ 0.713 µM)
MIC Coagulase Negative Staphylococcus (GC 4548) (Staphylococcus sp.): 0.5 µg/mL (≈ 0.356 µM)
MIC Coagulase Negative Staphylococcus (GC 4549) (Staphylococcus sp.): 0.5 µg/mL (≈ 0.356 µM)
MIC Coagulase Negative Staphylococcus (GC 4551) (Staphylococcus sp.): 1 µg/mL (≈ 0.713 µM)
MIC Streptococcus agalactiae (GC 4564) (Streptococcus sp.; [10]): 0.25 µg/mL (≈ 0.178 µM)
MIC Streptococcus pneumoniae (ATCC 6301) (Streptococcus sp.; [11]): <0.12 µg/mL
MIC Streptococcus pneumoniae (GC 1894) (Streptococcus sp.; [12]): <0.12 µg/mL
MIC Streptococcus pneumoniae (GC 4565) (Streptococcus sp.; [13]): <0.12 µg/mL
MIC Streptococcus pyogenes (GC 4563) (Streptococcus sp.; [14]): 1 µg/mL (≈ 0.713 µM)
MIC Streptococcus agalactiae (GC 4564) (Streptococcus sp.; [9]): 0.25 µg/mL (≈ 0.178 µM)
MIC Streptococcus pneumoniae (ATCC 6301) (Streptococcus sp.; [9]): <0.12 µg/mL
MIC Streptococcus pneumoniae (GC 1894) (Streptococcus sp.; [9]): <0.12 µg/mL
MIC Streptococcus pneumoniae (GC 4565) (Streptococcus sp.; [9]): <0.12 µg/mL
MIC Streptococcus pyogenes (GC 4563) (Streptococcus sp.; [9]): 1 µg/mL (≈ 0.713 µM)
Compound: CC(c1ccccc1)C1NC(=O)CNC(=O)C(CO)NC(=O)C(C(O)C2CNC(=N)N2C2OC(CO)C(O)C(O)C2O)NC(=O)C(C(O)C2CNC(=N)N2)NC(=O)C(Cc2ccc(OC3OC(CO)C(OC4OC5COC6(OC5C(O)C4O)C(C)CCCC6C)C(O)C3O)cc2)NC1=O (stereo not drawn) [Example 206, Cyclo[glycyl-β-methylphenylalanyl-O-[4-O-[4,6-O-(2,6-dimethylcyclohexylidene)hexopyranosyl]hexopyranosyl]tyrosyl-3-(2-iminoimidazolidin-4-yl)seryl-3-(3-hexopyranosyl-2-iminoimidazolidin-4-yl)serylseryl]]
MIC Staphylococcus haemolyticus (GC 4546) (Staphylococcus sp.): 0.5 µg/mL (≈ 0.356 µM)

MIC Enterococcus avium (GC 4558) (Enterococcus sp.; Enterococcus avium (GC 4558)): 1 µg/mL (≈ 0.699 µM)
MIC Enterococcus faecalis (ATCC 29212) (Enterococcus sp.; [1]): 4 µg/mL (≈ 2.79 µM)
MIC Enterococcus faecalis (GC 2242) (Enterococcus sp.; [2]): 4 µg/mL (≈ 2.79 µM)
MIC Enterococcus faecalis (GC 2691) (Enterococcus sp.; [3]): 2 µg/mL (≈ 1.4 µM)
MIC Enterococcus faecalis (GC 3059) (Enterococcus sp.; [4]): 2 µg/mL (≈ 1.4 µM)
MIC Enterococcus faecalis (GC 4552) (Enterococcus sp.; [5]): 4 µg/mL (≈ 2.79 µM)
MIC Enterococcus faecalis (GC 4553) (Enterococcus sp.; [6]): 4 µg/mL (≈ 2.79 µM)
MIC Enterococcus faecalis (GC 4554) (Enterococcus sp.; [7]): 4 µg/mL (≈ 2.79 µM)
MIC Enterococcus faecalis (GC 6189) (Enterococcus sp.; [8]): 2 µg/mL (≈ 1.4 µM)
MIC Enterococcus faecium (GC 2243) (Enterococcus sp.; Enterococcus faecium (GC 2243)): 4 µg/mL (≈ 2.79 µM)
MIC Enterococcus faecium (GC 4556) (Enterococcus sp.; Enterococcus faecium (GC 4556)): 4 µg/mL (≈ 2.79 µM)
MIC Enterococcus faecium (GC 4557) (Enterococcus sp.; Enterococcus faecium (GC 4557)): 2 µg/mL (≈ 1.4 µM)
MIC Enterococcus avium (GC 4558) (Enterococcus sp.; [9]): 1 µg/mL (≈ 0.699 µM)
MIC Enterococcus faecalis (ATCC 29212) (Enterococcus sp.; [9]): 4 µg/mL (≈ 2.79 µM)
MIC Enterococcus faecalis (GC 2242) (Enterococcus sp.; [9]): 4 µg/mL (≈ 2.79 µM)
MIC Enterococcus faecalis (GC 2691) (Enterococcus sp.; [9]): 2 µg/mL (≈ 1.4 µM)
MIC Enterococcus faecalis (GC 3059) (Enterococcus sp.; [9]): 2 µg/mL (≈ 1.4 µM)
MIC Enterococcus faecalis (GC 4552) (Enterococcus sp.; [9]): 4 µg/mL (≈ 2.79 µM)
MIC Enterococcus faecalis (GC 4553) (Enterococcus sp.; [9]): 4 µg/mL (≈ 2.79 µM)
MIC Enterococcus faecalis (GC 4554) (Enterococcus sp.; [9]): 4 µg/mL (≈ 2.79 µM)
MIC Enterococcus faecalis (GC 6189) (Enterococcus sp.; [9]): 2 µg/mL (≈ 1.4 µM)
MIC Enterococcus faecium (GC 2243) (Enterococcus sp.; [9]): 4 µg/mL (≈ 2.79 µM)
MIC Enterococcus faecium (GC 4556) (Enterococcus sp.; [9]): 4 µg/mL (≈ 2.79 µM)
MIC Enterococcus faecium (GC 4557) (Enterococcus sp.; [9]): 2 µg/mL (≈ 1.4 µM)
MIC Escherichia coli (ATCC 25922) (Escherichia coli): 32 µg/mL (≈ 22.4 µM)
MIC Escherichia coli (GC 4559) (Escherichia coli): 64 µg/mL (≈ 44.7 µM)
MIC Escherichia coli (GC 4560) (Escherichia coli): 2 µg/mL (≈ 1.4 µM)
MIC Staphylococcus aureus (ATCC 29213) (Staphylococcus sp.): 1 µg/mL (≈ 0.699 µM)
MIC Staphylococcus aureus (GC 1131) (Staphylococcus sp.): 2 µg/mL (≈ 1.4 µM)
MIC Staphylococcus aureus (GC 3051) (Staphylococcus sp.): 2 µg/mL (≈ 1.4 µM)
MIC Staphylococcus aureus (GC 3053) (Staphylococcus sp.): 1 µg/mL (≈ 0.699 µM)
MIC Staphylococcus aureus (GC 4541) (Staphylococcus sp.): 1 µg/mL (≈ 0.699 µM)
MIC Staphylococcus aureus (GC 4542) (Staphylococcus sp.): 1 µg/mL (≈ 0.699 µM)
MIC Staphylococcus aureus-SMITH (GC 4543) (Staphylococcus sp.): 1 µg/mL (≈ 0.699 µM)
MIC Staphylococcus aureus (GC 4544) (Staphylococcus sp.): 1 µg/mL (≈ 0.699 µM)
MIC Staphylococcus aureus (GC 4545) (Staphylococcus sp.): 1 µg/mL (≈ 0.699 µM)
MIC Coagulase Negative Staphylococcus (GC 4547) (Staphylococcus sp.): 1 µg/mL (≈ 0.699 µM)
MIC Coagulase Negative Staphylococcus (GC 4548) (Staphylococcus sp.): 0.5 µg/mL (≈ 0.349 µM)
MIC Coagulase Negative Staphylococcus (GC 4549) (Staphylococcus sp.): 0.5 µg/mL (≈ 0.349 µM)
MIC Coagulase Negative Staphylococcus (GC 4551) (Staphylococcus sp.): 4 µg/mL (≈ 2.79 µM)
MIC Streptococcus agalactiae (GC 4564) (Streptococcus sp.; [10]): <0.12 µg/mL
MIC Streptococcus pneumoniae (ATCC 6301) (Streptococcus sp.; [11]): <0.12 µg/mL
MIC Streptococcus pneumoniae (GC 1894) (Streptococcus sp.; [12]): <0.12 µg/mL
MIC Streptococcus pneumoniae (GC 4565) (Streptococcus sp.; [13]): <0.12 µg/mL
MIC Streptococcus pyogenes (GC 4563) (Streptococcus sp.; [14]): <0.12 µg/mL
MIC Streptococcus agalactiae (GC 4564) (Streptococcus sp.; [9]): <0.12 µg/mL
MIC Streptococcus pneumoniae (ATCC 6301) (Streptococcus sp.; [9]): <0.12 µg/mL
MIC Streptococcus pneumoniae (GC 1894) (Streptococcus sp.; [9]): <0.12 µg/mL
MIC Streptococcus pneumoniae (GC 4565) (Streptococcus sp.; [9]): <0.12 µg/mL
MIC Streptococcus pyogenes (GC 4563) (Streptococcus sp.; [9]): <0.12 µg/mL
Compound: CC(c1ccccc1)C1NC(=O)CNC(=O)C(CO)NC(=O)C(C(O)C2CNC(=N)N2C2OC(CO)C(O)C(O)C2O)NC(=O)C(C(O)C2CNC(=N)N2)NC(=O)C(Cc2ccc(OC3OC(CO)C(OC4OC5COC6(CC(C)(C)CC(C)(C)C6)OC5C(O)C4O)C(O)C3O)cc2)NC1=O (stereo not drawn) [Example 207, Cyclo[glycyl-β-methylphenylalanyl-O-[4-O-[4,6-O-(3,3,5,5-tetramethylcyclohexylidene)hexopyranosyl]hexopyranosyl]tyrosyl-3-(2-iminoimidazolidin-4-yl)seryl-3-(3-hexopyranosyl-2-iminoimidazolidin-4-yl)serylseryl]]
MIC Staphylococcus haemolyticus (GC 4546) (Staphylococcus sp.): 1 µg/mL (≈ 0.699 µM)
